Drawing on patent US11840521B2, “Modulators of Mas-related G-protein receptor X4 and related products and methods” (Escient Pharmaceuticals, Inc., priority 2019, dated 2023), this text covers IC50 for 69 compounds.

Chain of MRGPRX4 (Q96LA9 whole entry): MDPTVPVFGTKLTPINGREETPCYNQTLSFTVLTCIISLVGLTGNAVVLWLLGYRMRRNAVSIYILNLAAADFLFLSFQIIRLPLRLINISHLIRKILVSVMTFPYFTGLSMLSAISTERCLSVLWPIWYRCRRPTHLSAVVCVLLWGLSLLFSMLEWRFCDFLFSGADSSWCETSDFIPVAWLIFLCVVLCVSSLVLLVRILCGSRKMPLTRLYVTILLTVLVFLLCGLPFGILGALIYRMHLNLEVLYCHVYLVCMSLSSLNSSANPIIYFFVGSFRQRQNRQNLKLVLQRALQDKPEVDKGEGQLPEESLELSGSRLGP

This assay concerns the target MRGPRX4 (Homo sapiens, UniProt Q96LA9). Put plainly: MRGPR X4 antagonist activity, IP-One Gq HTRF assay in stably transfected HEK cells (versus agonist bilirubin, deoxycholic acid, conjugated bilirubin, urobilin, obeticholic acid or BAR502). The note with it: versus 10 μM Bilirubin agonist; HEK cells expressing human MRGPR X4; read-out: MRGPR4 Antagonist Activity. The class given is cell-based. Also noted: expressed in transfected cells; host or cells: HEK cells, stably transfected. On the procedure:
HEK cells stably transfected to express human MRGPR X4 were maintained in an incubator at 37° C. with 5% CO2 and grown in DMEM media with 10% fetal bovine serum (FBS) and 1% each of sodium pyruvate, Glutamax, penicillin/streptomycin, and Geneticin. HEK cells stably transfected to express mouse MRGPR A1 were maintained in the same incubator and grown in DMEM media with 10% FBS, 1% each of sodium pyruvate, Glutamax, penicillin/streptomycin, Geneticin, and 2.2 mg/mL Hygromycin.
Cells were plated in a 384-well assay plate at 20,000 cells per well in 12 μL of Opti-MEM and kept in an incubator overnight. On the day of the assay, compounds solubilized at 10 mM in DMSO were added as a 10-point curve (10 uM final top concentration with 1:3 serial dilutions) using a Tecan D300E digital dispenser. […] Final concentrations of DMSO were kept consistent across the plate. Plates were incubated in the dark for 1 h at 37° C. and then for 30 minutes at room temperature. IP-1 standards and HTRF detection reagents were added according to the IP-One—Gq Kit purchased from Cisbio (part number 62IPAPEJ) and incubated in the dark for 1 h at room temperature. The plate was read on a Molecular Devices SpectraMax iD5 plate reader. The HTRF ratio was calculated from the raw data and graphed using GraphPad Prism to calculate an IC50 value for each compound.
For orientation: Time-resolved FRET reads energy transfer from a long-lived donor to a nearby acceptor.
Turning to `CS(=O)(=O)NC(=O)c1cccc(COc2ccc(C(F)(F)F)cc2Cl)c1` [Compound 52-20], the IC50 lay in the range of 100 to 500 nM. `FC(F)c1cccc(COc2ccc(C(F)(F)F)cc2Cl)c1` [Compound 50-1, 2-chloro-1-((3-(difluoromethyl)benzyl)oxy)-4-(trifluoromethyl)benzene]: the IC50 was in the range of 1000 to 2500 nM.

As for `O=C(O)c1cccc(Oc2ccc(Cl)cc2Cl)c1` [Compound 16-1, 3-(2,4-dichlorophenoxy)benzoic acid], the IC50 was in the range of 1000 to 2500 nM. Then `COc1cc(COc2ccc(C(F)(F)F)cc2Cl)cc(C(=O)O)c1` [Compound 2-2], with less than 100 nM; and `O=C(O)c1cccc(COc2ccc(Cl)c(F)c2)c1` [Compound 1-59], with less than 100 nM. For `Cc1ccc(OCc2cccc(C(=O)O)c2)c(C)c1F` [Compound 1-60], the IC50 fell in the range of 500 to 1000 nM.

Turning to `O=C(O)c1cccc(COc2ccc(C(F)(F)F)cc2)c1F` [Compound 4-28], the IC50 is less than 100 nM.

Consider `O=C(O)c1cccc(COc2ccc(Cl)cc2C(F)(F)F)c1` [Compound 1-28], for which the IC50 was in the range of 100 to 500 nM.

Regarding `O=C(O)c1cccc(COc2cccc(Br)c2)c1` [Compound 1-109], the IC50 was in the range of 500 to 1000 nM. On to `O=C(O)c1cccc(COc2ccc3ccsc3c2)c1` [Compound 1-97], for which the IC50 was in the range of 100 to 500 nM. For the compound `O=C(N[C@@H](Cc1c[nH]cn1)C(=O)O)c1cccc(COc2ccc(C(F)(F)F)cc2Cl)c1` [Compound 55-2], the IC50 was 500 to 1000 nM.

As to `N#Cc1cc(Cl)c(F)cc1OCc1cccc(C(=O)O)c1` [Compound 1-153], the IC50 lay in the range of 100 to 500 nM.

In the case of `O=C(O)c1cccc(COc2ccc(N3CCCC3)cc2Cl)c1F` [Compound 4-24], the IC50 fell in the range of 500 to 1000 nM. As to `Fc1ccc(COc2ccc(C(F)(F)F)cc2Cl)cc1-c1nnn[nH]1` [Compound 17-16], the IC50 is less than 100 nM. Then `O=C(O)c1cccc(COc2ccc3sccc3c2Cl)c1F` [Compound 4-26], with less than 100 nM; and `NC(=O)c1cccc(COc2cccc(Cl)c2Cl)c1` [Compound 13-1, 3-((2,3-dichlorophenoxy)methyl)benzamide], with greater than 2500 nM; and `O=C(NC1CCCC(O)C1)c1cccc(COc2ccc(C(F)(F)F)cc2Cl)c1` (stereo not drawn) [Compound 52-19], with 500 to 1000 nM. Then `O=C(O)c1cccc(COc2ccc3occc3c2)c1` [Compound 1-131], with 100 to 500 nM; and `O=C(O)c1cccc(COc2ccc3c(c2)CCC3=O)c1` [Compound 1-74], with greater than 2500 nM. With `O=C(O)c1cccc(COc2ccc(C(F)(F)F)nc2)c1` [Compound 1-102], the IC50 is 1000 to 2500 nM.

For the compound `O=C(O)c1cccc(COc2ccc(C(F)(F)F)c(Cl)c2)n1` [Compound 1-133], the IC50 is less than 100 nM.

On to `COC(=O)c1cccc(COc2ccc(Cl)cc2C(F)(F)F)n1` [Compound 1-10], for which the IC50 was 500 to 1000 nM. Then `COc1c(COc2ccc(Cl)cc2Cl)cccc1C(=O)O` [Compound 6-1, 3-((2,4-dichlorophenoxy)methyl)-2-methoxybenzoic acid], with 1000 to 2500 nM; and `O=C(O)c1nc(COc2ccc(C(F)(F)F)cc2Cl)ccc1F` [Compound 4-18], with less than 100 nM.

Regarding `c1cc(COc2ccc3ccccc3c2)cc(-c2nnn[nH]2)c1` [Compound 17-5], the IC50 was less than 100 nM.

With `COc1ccc(OCc2cccc(C(=O)O)c2)c(Cl)c1` [Compound 1-92], the IC50 lay within 1000 to 2500 nM. As for `CCNC(=O)c1cccc(COc2ccc(C(F)(F)F)cc2Cl)c1` [Compound 52-10], the IC50 lay in the range of 100 to 500 nM.

For `N#Cc1ccc(COc2ccc(Cl)cc2Cl)cc1C(=O)O` [Compound 5-2], the IC50 lay in the range of 1000 to 2500 nM. Consider `O=C(O)c1cccc(Oc2ccc([N+](=O)[O-])cc2Cl)c1` [Compound 16-2], for which the IC50 was greater than 2500 nM. Then `O=C(O)c1cccc(COc2cccc(Cl)c2F)c1` [Compound 1-75], with 1000 to 2500 nM; and `COC(=O)c1cncc(COc2ccc(Cl)cc2Cl)n1` [Compound 1-9], with 1000 to 2500 nM; and `O=C(O)c1cc(COc2ccc(C(F)(F)F)cc2Cl)ccn1` [Compound 1-137], with 100 to 500 nM. Then `CC(C)[C@H](NC(=O)c1cccc(COc2ccc(C(F)(F)F)cc2Cl)c1)C(=O)O` [Compound 54-1, (3-((2-chloro-4-(trifluoromethyl)phenoxy)methyl)benzoyl)-L-valine], with 100 to 500 nM; and `O=C(O)c1cccc(COc2ccc(Br)cc2)c1` [Compound 1-110], with 100 to 500 nM. Then `Cc1cc(Cl)ccc1OCc1cccc(C(=O)O)c1` [Compound 3-5], with 100 to 500 nM; and `Cc1ccc(C(=O)O)cc1COc1ccc(Cl)cc1Cl` [Compound 8-2], with 1000 to 2500 nM; and `O=C(O)c1cccc(COc2ccc(C(F)(F)F)c(Cl)c2)c1` [Compound 1-118], with less than 100 nM. With `N#Cc1ccc(OCc2cccc(C(=O)O)c2)c(Cl)c1` [Compound 1-35], the IC50 lay within 100 to 500 nM. Then `Cc1cc(-n2cccc2)ccc1OCc1cccc(C(=O)O)c1F` [Compound 4-27], with 100 to 500 nM; and `CC(C)c1ccccc1OCc1cccc(C(=O)O)c1` [Compound 1-146], with greater than 2500 nM.

Regarding `Cc1cc(OCc2cccc(C(=O)O)c2)ccc1OC(F)(F)F` [Compound 1-139], the IC50 was greater than 2500 nM.

For the compound `N#CCc1ccccc1OCc1cccc(C(=O)O)c1` [Compound 1-150], the IC50 was greater than 2500 nM. As for `O=C(O)c1cc(COc2ccc(Cl)cc2Cl)ccc1Cl` [Compound 1-44], the IC50 fell in the range of 500 to 1000 nM. Then `O=C(O)c1cccc(COc2cc(Cl)ccc2Cl)c1` [Compound 1-19], with 1000 to 2500 nM. Then `O=C(O)c1cccc(COc2cccc(-c3ccccc3)c2)c1` [Compound 3-3], with 1000 to 2500 nM; and `O=C(O)c1cccc(COc2ccc(Cl)cc2)n1` [Compound 1-36], with 500 to 1000 nM; and `O=C(O)c1cc(C2CC2)cc(COc2ccc(C(F)(F)F)cc2Cl)n1` [Compound 8-3], with less than 100 nM. Then `O=C(c1cccc(COc2ccc(C(F)(F)F)cc2Cl)c1)N1CCOC1` [Compound 52-25], with 500 to 1000 nM; and `Fc1c(COc2ccc(C(F)(F)F)cc2Cl)cccc1-c1nnn[nH]1` [Compound 17-15], with less than 100 nM. `Cc1cc(C(F)(F)F)ccc1OCc1cccc(C(=O)O)n1` [Compound 1-127]: the IC50 was less than 100 nM. Then `O=C(O)c1cccc(COc2cc(Cl)cc(Cl)c2)c1` [Compound 3-9], with 1000 to 2500 nM. Then `NC(=O)c1cccc(COc2ccc(C(F)(F)F)cc2Cl)c1` [Compound 45-1, 3-((2-chloro-4-(trifluoromethyl)phenoxy)methyl)benzamide], with 100 to 500 nM. Then `Cc1cc(F)c(F)cc1OCc1cccc(C(=O)O)c1` [Compound 1-71], with 500 to 1000 nM. In the case of `O=C(O)c1cccc(COc2ccc(-n3cccc3)cc2)c1` [Compound 1-80], the IC50 fell in the range of 100 to 500 nM. Turning to `O=C(NCCS(=O)(=O)O)c1ccc(COc2ccc(C(F)(F)F)cc2Cl)cc1` [Compound 52-5], the IC50 lay within 100 to 500 nM. As for `Cc1noc(-c2cccc(COc3ccc(C(F)(F)F)cc3Cl)c2)n1` [Compound 49-1, 5-(3-((2-chloro-4-(trifluoromethyl)phenoxy)methyl)phenyl)-3-methyl-1,2,4-oxadiazole], the IC50 was greater than 2500 nM.

Turning to `Cc1cc(OCc2cccc(C(=O)O)c2)ccc1C(F)(F)F` [Compound 1-138], the IC50 is greater than 2500 nM. Then `Cc1cc(OCc2cccc(C(=O)O)c2)cc(C)c1Cl` [Compound 1-53], with 500 to 1000 nM; and `O=C(O)c1cccc(COc2ccc(Cl)c(F)c2Cl)c1` [Compound 1-148], with less than 100 nM; and `O=C(O)c1cccc(COc2ccc(C(F)(F)F)cn2)c1` [Compound 10-1, 3-(((5-(trifluoromethyl)pyridin-2-yl)oxy)methyl)benzoic acid], with 1000 to 2500 nM. In the case of `Nc1cccc(COc2ccc(C(F)(F)F)cc2Cl)c1` [Compound 65-1, 3-((2-chloro-4-(trifluoromethyl)phenoxy)methyl)aniline], the IC50 fell in the range of 500 to 1000 nM.

In the case of `O=C(O)c1cccc(COc2ccc(Oc3ccccc3)cc2)c1` [Compound 1-52], the IC50 was greater than 2500 nM. Consider `FC(F)(F)c1ccc(OCc2ccc(-c3nnn[nH]3)cc2)c(Cl)c1` [Compound 17-12], for which the IC50 lay within 500 to 1000 nM. For the compound `O=C(c1ccc(COc2ccc(C(F)(F)F)cc2Cl)cc1)N1CC2(COC2)C1` [Compound 52-2], the IC50 was greater than 2500 nM.

For the compound `O=C(O)c1cccc(COc2ccc(OC(F)(F)F)c(Cl)c2)n1` [Compound 1-129], the IC50 is less than 100 nM. As to `Cc1cc(C(F)(F)F)ccc1OCc1cccc(C(=O)O)c1` [Compound 1-16, 3-((2-methyl-4-(trifluoromethyl)phenoxy)methyl)benzoic acid], the IC50 is less than 100 nM. Then `O=C(c1cccc(COc2ccc(C(F)(F)F)cc2Cl)c1)N1CC(O)C1` [Compound 52-18], with 500 to 1000 nM; and `Cc1c(Cl)cccc1OCc1cccc(C(=O)O)c1` [Compound 1-95], with 100 to 500 nM; and `CCc1c(COc2ccc(C(F)(F)F)cc2Cl)cccc1C(=O)O` [Compound 37-1, 3-((2-chloro-4-(trifluoromethyl)phenoxy)methyl)-2-ethylbenzoic acid], with 1000 to 2500 nM.
